Paper PMC7897990, “TriTOX: A novel Trichomonas vaginalis assay platform for high-throughput screening of compound libraries” (International Journal for Parasitology: Drugs and Drug …, 2021)
Where two headings read alike, the source gives them in different places.

Tests used:
[1] = test system: Trichomonas vaginalis G3 trophozoites; conditions: for T.vaginalis_Absorbance_Rep1: replicate 1, raw absorbance; for T.vaginalis_Absorbance_Rep2: replicate 2, raw absorbance
[2] = test system: nontumorigenic neonatal foreskin fibroblast (NFF) cell line
[3] = HTS, parasite screen at 1 µg/mL, replicate 1
[4] = HTS, parasite screen at 1 µg/mL
[5] = HTS, parasite screen at 1 µg/mL, replicate 2
[6] = HTS replicate 1, parasite screen 1 µg/mL
[7] = HTS replicate 2, parasite screen 1 µg/mL
[8] = NFF fibroblasts, single concentration 5 µg/mL

SMILES | T.vaginalis_%inb_Rep1 [1, 3] [%] | T.vaginalis_Absorbance_Rep1 [1, 4] | T.vaginalis_%inb_Rep2 [1, 5] [%] | T.vaginalis_Absorbance_Rep2 [1, 4] | NFF_Activity ([2]; NFF_NS1 screen at 5 µg/mL) | T.vaginalis_%inb_Rep1 [1, 6] [%] | T.vaginalis_%inb_Rep2 [1, 7] [%] | NFF_Activity [2, 8] | further results
COc1cc(/C=C/C(=O)O)ccc1O [Ferulic acid] | 13.69 | 0.972 | 12.64 | 0.832 | I (otherwise these were reported as inactive (I)) | – | – | – | –
CCCCCC[C@H]1C(=O)O[C@H](C)[C@@H](O)/C=C/C=C/C=C/C=C/C=C(\C)[C@@H](O)C[C@H](O)C[C@H](O)C[C@H](O)C[C@H](O)C[C@H](O)C[C@@H]1O [Filipin II] | 13.79 | 0.965 | 25.09 | 0.967 | I (otherwise these were reported as inactive (I)) | – | – | – | –
CS(=O)(=O)c1ccc([C@@H](O)[C@H](N)CF)cc1.Cl [Florfenicol amine HCl] | 15.67 | 1 | 15.11 | 0.829 | I (otherwise these were reported as inactive (I)) | – | – | – | –
COc1ccc2c3c([nH]c2c1)[C@H](C=C(C)C)N1C(=O)[C@@H]2CCCN2C(=O)[C@@H]1C3 [Fumitremorgin C] | 12.68 | 0.952 | 4.11 | 0.699 | I (otherwise these were reported as inactive (I)) | – | – | – | –
CCCC[C@@H](C)[C@@H](OC(=O)C[C@@H](CC(=O)O)C(=O)O)[C@H](C[C@@H](C)C[C@H](O)CCCC[C@@H](O)C[C@H](O)[C@H](C)N)OC(=O)C[C@@H](CC(=O)O)C(=O)O [Fumonisin B1] | 12.98 | 0.958 | 14.05 | 0.854 | I (otherwise these were reported as inactive (I)) | – | – | – | –
CCCC[C@@H](C)[C@@H](OC(=O)C[C@@H](CC(=O)O)C(=O)O)[C@H](C[C@@H](C)CCCCCC[C@@H](O)C[C@H](O)[C@H](C)N)OC(=O)C[C@@H](CC(=O)O)C(=O)O [Fumonisin B2] | 14.71 | 0.992 | 10.52 | 0.799 | I (otherwise these were reported as inactive (I)) | – | – | – | –
C[C@H]1CC[C@H]2[C@@H](C=C[C@@H]3[C@H]4[C@@H](C)O[C@]5(O)[C@@H](CO)N(C)C(=O)[C@]45C(=O)[C@@]32C)C1 [Fusarisetin A] | 14.05 | 0.979 | 15.01 | 0.869 | I (otherwise these were reported as inactive (I)) | – | – | – | –
CC1=CC(O/C=C2\CCOC2=O)OC1=O (centres unmarked) [GR5] | 9.60 | 0.948 | 13.10 | 0.852 | I (otherwise these were reported as inactive (I)) | – | – | – | –
CC1=C[C@H](O/C=C2/C(=O)O[C@@H]3c4ccccc4C[C@H]23)OC1=O [GR24] | 14.00 | 0.978 | 4.49 | 0.705 | I (otherwise these were reported as inactive (I)) | – | – | – | –
CNC[C@@H]1CC[C@@H](N)[C@@H](O[C@H]2[C@H](O)[C@@H](O[C@H]3OC[C@](C)(O)[C@H](NC)[C@H]3O)[C@H](N)C[C@@H]2N)O1 [Gentamicin C2b] | 11.00 | 0.919 | 5.20 | 0.716 | I (otherwise these were reported as inactive (I)) | – | – | – | –
O=c1cc(O)c1=O [Moniliformin] | – | – | – | – | – | 8.57 | 12.25 | I (otherwise these were reported as inactive (I)) | –
COc1ccc2c(c1OC)C(=O)O[C@@H]2[C@H]1c2c(cc3c(c2OC)OCO3)CCN1C [Narcotine] | – | – | – | – | – | 11.80 | 11.76 | I (otherwise these were reported as inactive (I)) | –
CC1=C[C@H]2C(=O)O[C@H]3C[C@@H](C/C=C(\C)C[C@@H](C)/C=C/C=C4\CO[C@H]([C@@H]1O)[C@@]42O)O[C@]1(C3)C[C@H](O)[C@H](C)[C@@H](/C(C)=C/C(C)C)O1 [Nemadectin] | – | – | – | – | – | 11.56 | 13.53 | I (otherwise these were reported as inactive (I)) | –
COc1oc(C2C/C(=C/C(C)=C/C(C)=C/C(C)=C/c3ccc([N+](=O)[O-])cc3)CO2)c(C)c(=O)c1C (centres unmarked) [Neoaureothin] | – | – | – | – | – | 14.76 | 12.19 | I (otherwise these were reported as inactive (I)) | –
CC(=O)OC[C@]12C[C@H](O)C(C)=C[C@H]1O[C@@H]1[C@H](O)[C@@H](OC(C)=O)[C@@]2(C)[C@]12CO2 [Neosolaniol] | – | – | – | – | – | – | – | – | T.vaginalis_%inb_Rep1 [1]: 8.23%; T.vaginalis_%inb_Rep2 [1]: 6.22%; NFF_Activity [2]: I (key: active (A) compounds having >25% inhibitory activity; otherwise these were reported as inactive (I))
O=C(O)CC[N+](=O)[O-] [Nitropropionic acid, 3-] | – | – | – | – | – | 18.00 | 11.87 | I (otherwise these were reported as inactive (I)) | –

SMILES | T.vaginalis_%inb_Rep1 [1, 3] [%] | T.vaginalis_Absorbance_Rep1 [1, 4] | T.vaginalis_%inb_Rep2 [1, 5] [%] | T.vaginalis_Absorbance_Rep2 [1, 4] | NFF_Activity ([2]; NFF_NS1 screen at 5 µg/mL) | T.vaginalis_%inb_Rep1 [1, 6] [%] | T.vaginalis_%inb_Rep2 [1, 7] [%] | NFF_Activity [2, 8] | further results
CO[C@@H]1C[C@H]2C=C[C@H]3[C@H]4O[C@]2(/C(C)=C\[C@@H](C)[C@@H]([C@@H](C)O)OC1=O)[C@@H]3[C@H](O)[C@@H](C)[C@H]4O [Nodusmicin] | – | – | – | – | – | 11.16 | 10.52 | I (otherwise these were reported as inactive (I)) | –
C[C@@H]1Cc2ccc(C(=O)N[C@@H](Cc3ccccc3)C(=O)O)c(O)c2C(=O)O1 [Ochratoxin B] | – | – | – | – | – | 13.18 | 9.36 | I (otherwise these were reported as inactive (I)) | –
CCOC(=O)[C@H](Cc1ccccc1)NC(=O)c1cc(Cl)c2c(c1O)C(=O)O[C@H](C)C2 [Ochratoxin C] | – | – | – | – | – | 15.37 | 4.81 | I (otherwise these were reported as inactive (I)) | –
CCCCCCCCCCCCCCCCCC(=O)N[C@H]1CCOC1=O [Octadecanoyl-L-homoserine lactone] | – | – | – | – | – | 12.02 | 13.47 | I (otherwise these were reported as inactive (I)) | –
CCCCCCCC(=O)N[C@H]1CCOC1=O [Octanoyl-L-homoserine lactone] | – | – | – | – | – | 16.84 | 14.05 | I (otherwise these were reported as inactive (I)) | –
CC[C@H]1/C=C/C=C/C[C@@H](C)[C@H](O)[C@@](C)(O)C(=O)[C@@H](C)[C@H](O)[C@@H](C)C(=O)[C@@H](C)[C@H](O)[C@@H](C)/C=C/C(=O)O[C@@H]2[C@H](C)[C@H](CC1)O[C@@]1(O[C@@H](C[C@@H](C)O)[C@@H](C)CC1=O)[C@H]2C [Oligomycin B] | – | – | – | – | – | 12.98 | 13.09 | I (otherwise these were reported as inactive (I)) | –
CC[C@H]1/C=C/C=C/C[C@@H](C)[C@H](O)[C@@](C)(O)C(=O)[C@@H](C)[C@H](O)[C@@H](C)C(=O)[C@@H](C)[C@H](O)[C@@H](C)/C=C/C(=O)O[C@H]2C[C@@]3(CC[C@H](C)[C@H](C[C@@H](C)O)O3)O[C@@H](CC1)[C@H]2C [Oligomycin D] | – | – | – | – | – | 14.35 | 12.89 | – | NFF_Activity [2]: I (key: active (A) compounds having >25% inhibitory activity; otherwise these were reported as inactive (I))
CC[C@H]1/C=C/C=C/C[C@@H](C)[C@H](O)[C@@](C)(O)C(=O)[C@@H](C)[C@H](O)[C@@H](C)C(=O)[C@@H](C)[C@H](O)[C@@H](C)/C=C/C(=O)O[C@@H]2[C@H](C)[C@H](CC1)O[C@@]1(O[C@@H](C[C@@H](C)O)[C@@H](C)CC1=O)[C@]2(C)O [Oligomycin E] | – | – | – | – | – | 14.66 | 15.07 | – | NFF_Activity [2]: I (key: active (A) compounds having >25% inhibitory activity; otherwise these were reported as inactive (I))
CC(C)=CCC[C@H](C)[C@@]1(O)CC[C@]2(C)C[C@H]3[C@H](C(=O)C[C@@]3(C)O)/C(C=O)=C\C[C@H]21 [Ophiobolin B] | – | – | – | – | – | 11.82 | 13.09 | A (active (A) compounds having >25% inhibitory activity) | –
COc1cc(C)c(C(=O)O)c(OC)c1 [Orsellinic acid dimethylether] | – | – | – | – | – | 12.73 | 13.02 | I (otherwise these were reported as inactive (I)) | –
CC=CC=CC1OC(O)(C(C)C(O)C(C)C2OC(=O)C(OC)=CC(C)=CC(C)C(O)C(C)CC(C)=CC=CC2OC)CC(OC2CC(O)C(O)C(C)O2)C1C (centres unmarked) [PC-766B] | – | – | – | – | – | 72.87 | 76.65 | A (active (A) compounds having >25% inhibitory activity) | –
CCC[C@H](O)C[C@@H]1CC[C@H](C)CCCCC(=O)N(C)[C@@H](Cc2ccc(OCCO)cc2)C(=O)O1 [PF1163A] | – | – | – | – | – | 11.61 | 10.39 | I (otherwise these were reported as inactive (I)) | –
CCCCC[C@@H]1CC[C@H](C)CCCCC(=O)N(C)[C@@H](Cc2ccc(OCCO)cc2)C(=O)O1 [PF1163B] | – | – | – | – | – | 17.85 | 14.30 | I (otherwise these were reported as inactive (I)) | –
C[C@H]1CCN2C[C@]34C[C@@]5(C(=O)Nc6c5ccc5c6OC=CC(C)(C)O5)C(C)(C)[C@@H]3C[C@]12C(=O)N4C [Paraherquamide E] | – | – | – | – | – | 16.63 | 15.01 | I (otherwise these were reported as inactive (I)) | –
C[C@@]12CCC[C@@]34CCC[C@@H](C=C[C@H]1CC3)N42 [Porantherine] | – | – | – | – | – | 9.49 | 15.78 | I (otherwise these were reported as inactive (I)) | –
